Laboratory results from PMC8469489, “Effect of Lactic Acid Bacteria on the Pharmacokinetics and Metabolism of Ginsenosides in Mice” (Pharmaceutics, 2021).
Like-named read-outs stand apart in the source and are kept apart here.

Key:
[1] = Recovery of ginsenosides from urine and feces for 48 h after RGE, amoxicillin vs control; settings: for Fecal recovery, change by the amoxicillin treatment: feces 48 h after single oral RGE 2 g/kg, vs control; for Ginsenosides identified in urine: urine 48 h after single oral RGE 2 g/kg
Description: Aliquots (200 μL) of an IS (0.05 ng/mL berberine in methanol) were added to 30 μL of plasma or urine samples. Aliquots (600 μL) of an IS methanol solution containing 0.05 ng/mL berberine were added to 100 μL of 10% feces homogenate samples. […] After centrifugation, 200 μL of the supernatant was transferred to a clean tube and dried under a nitrogen stream at 40 °C. The residue was reconstituted using 100 μL of 70% methanol supplemented with 0.1% formic acid, and a 10-μL aliquot was injected into the LC–MS/MS system.

[2] = Pharmacokinetics of ginsenosides after single oral RGE with or without amoxicillin treatment; format: in vivo, mice; settings: single oral RGE 2 g/kg; for AUC: AUC 0 to 48 h
Description: Male ICR mice (7-weeks-year-old, 30–35 g) were purchased from Samtako Co. (Osan, Kyunggi-do, Korea). Animals were acclimatized for 1 week in an animal facility at Kyungpook National University. Food and water were available ad libitum.
Before blood sampling, mice were anesthetized using isoflurane (isoflurane vaporizer to 2% with oxygen flow at 0.8 L/min) for 5 min.

[3] = set-up: method as in PMID 29375375, PMID 28955238; settings: 100–400 mg of CK, once daily for 9 days; cited from earlier work
[4] = set-up: method as in PMID 27516803, PMID 24235859; settings: cited from earlier work
[5] = Pharmacokinetics of ginsenosides after single oral RGE after amoxicillin with or without repeated LAB treatment; settings: single oral RGE 2 g/kg; for AUC: AUC 0 to 48 h
Description: (§2) Mice received amoxicillin (n = 12, 20 mg/kg, dissolved in water at 2 mL/kg, twice daily) for 3 days via oral gavage. From the 4th day, mice from the LAB + amoxicillin treatment group received LAB (2 g/kg suspended in water at 2 mL/kg, once daily) for 7 days via oral gavage. Mice from the amoxicillin treatment group received water (2 mL/kg, once daily) for 7 days via oral gavage.
Blood sampling was performed using a sparse sampling method via the right or left retro-orbital vein under isoflurane anesthesia at 0, 2, 4, and 8 h after the RGE administration through the heparinized capillary tube. […] After centrifugation of the blood samples at 10,000× g for 1 min, 30 μL aliquots of plasma were stored at −80 °C until the analysis of the ginsenosides. Subsequent protocols were identical to the amoxicillin treated group.
Pharmacokinetic parameters were calculated using WinNonlin (version 5.1, Pharsight, Mountain View, CA, USA) by a non-compartmental analysis.

[6] = tested on: lactic acid bacteria (LAB); test: In vitro RGE fermentation with LAB; settings: for Alteration of ginsenoside by fermentation of RGE with LAB: 7 days incubation; for Increase of ginsenoside by fermentation of RGE with LAB: 7 days, relative to the first day
[7] = Recovery of ginsenosides from urine and feces for 48 h after RGE, amoxicillin with or without LAB; settings: for Fecal recovery, change by LAB treatment: feces 48 h after single oral RGE 2 g/kg, Amoxicillin + LAB vs amoxicillin
Description: as §2

[8] = Plasma protein binding by rapid equilibrium dialysis; format: in vitro ADME; settings: 1 μM, 4 h at 37 °C, mouse plasma
Description: Briefly, 100 μL of mouse plasma containing 1 μM of each ginsenoside was added to the semipermeable membrane’s inner sample chamber (molecular weight cut-off 8000 Da), and 300 μL of PBS was added to the outer buffer chamber. The samples were then incubated for 4 h at 37 °C on a shaking incubator at 300 rpm, followed by collecting 30-μL aliquots from both the sample and buffer chambers.
(§1) Subsequent protocols were identical to the method described above except for the use of ice-cold IS solution (200 μL; 0.05 ng/mL berberine in acetonitrile) to 30 μL of the reaction samples.
Plasma protein binding was calculated using the following equation [31, 60]: Plasma protein binding=(1−Drug concentration in buffer chamber/Drug concentration in plasma sample chamber)×100(%).

[9] = set-up: method as in PMID 32023909; settings: cited from earlier work
[10] = tested on: lactic acid bacteria (LAB); test: Incubation of single ginsenoside with LAB (formation rate of metabolite ginsenoside); format: in vitro ADME; settings: 7 days, 37 °C, MRS broth
Description: To compare the involvement of LAB on individual ginsenoside, an aliquot (10 μL) of each ginsenoside stock solution (10 mM in methanol) was mixed with autoclaved MRS broth (550 mg/10 mL in distilled water) and added 2 g of LAB (contained 1 billion CFU). Then, the mixture was incubated for 7 days in a shaking incubator at 37 °C and 300 rpm. For the analysis of ginsenosides, 0.2 mL aliquot of incubation mixture was collected every 24 h for 7 days. The incubation medium was diluted 100-fold with distilled water and stored at −80 °C. For the ginsenoside analysis, 200 μL of an IS solution (0.05 ng/mL berberine in methanol) was added to 30 μL of 100-fold diluted samples.

Microsomal stability = format: in vitro ADME, mouse; settings: 1 μM; for Metabolic stability in mouse liver microsomes: incubation for 1 h
Description: For microsomal stability, individual ginsenoside (1 μM each) was reconstituted in 100 mM potassium phosphate buffer (pH 7.4) containing 0.25 mg of mouse liver microsomes and preincubated for 5 min at 37 °C. This reaction was initiated by adding an NADPH-generating system (1.3 mM β-NADP, 3.3 mM glucose-6-phosphate, 3.3 mM MgCl2, and 1.0 unit/mL glucose-6-phosphate dehydrogenase; purchased form Corning Life Sciences) (to make final volume of 100 μL). The reaction mixture was incubated for 1 h at 37 °C in a shaking water bath and the reaction was quenched by addition of addition of an ice-cold IS solution (200 μL; 0.05 ng/mL berberine in methanol) to 30 μL of the reaction samples.
as §1
Plasma and microsomal stability was determined from the percent of remaining concentration of ginsenosides or marker compounds compared to their initial concentration.

[11] = Amoxicillin + LAB (LAB 2 g/kg once daily 7 days)
[12] = Amoxicillin 3 days pretreatment
[13] = Amoxicillin 3 days then water 7 days

| Ginsenosides identified in urine [1] | Cmax ([2]; Control, plasma) [ng/mL] | Half-Life ([2]; Control, plasma) [h] | MRT ([2]; Control, plasma) [h] | Tmax ([2]; Control, plasma) [h] | AUC ([2]; Control, plasma, n = 3) [ng·h/mL] | AUC [5, 11] [ng·h/mL] | Cmax ([5]; Amoxicillin + LAB) [ng/mL] | Half-Life ([5]; Amoxicillin + LAB) [h] | MRT ([5]; Amoxicillin + LAB) [h] | Tmax ([5]; Amoxicillin + LAB) [h] | Detection in mouse plasma following repeated LAB administration in addition to amoxicillin [5] | Plasma exposure / pharmacokinetic parameters, LAB treatment compared with amoxicillin group [5] | Alteration of ginsenoside by fermentation of RGE with LAB [6] | Fecal recovery, change by LAB treatment [7] | SMILES | Metabolite formation on incubation of single ginsenoside with LAB [10] | other results |
| --- | --- | --- | --- | --- | --- | --- | --- | --- | --- | --- | --- | --- | --- | --- | --- | --- | --- |
| identified in urine | 3.6 ± 1.4 | 13.2 ± 3.2 | 13.9 ± 5.3 | 8.0 ± 0.0 | 69.94 ± 37.8 | 249.8 ± 103.0 | 9.3 ± 2.9 | 12.0 ± 5.0 | 13.7 ± 6.2 | 8.0 ± 0.0 | detected | increased | significantly increased | significantly increased | CC(C)=CCC[C@](C)(O[C@@H]1O[C@H](CO)[C@@H](O)[C@H](O)[C@H]1O)[C@H]1CC[C@]2(C)[C@@H]1[C@H](O)C[C@@H]1[C@@]3(C)CC[C@H](O)C(C)(C)[C@@H]3CC[C@]12C [CK, 20(S)-compound K] | – | Fecal recovery, change by the amoxicillin treatment [1]: significantly decreased; Detection in plasma, amoxicillin treatment group [2]: not seen; Detection in plasma, control group [2]: detected; Safety and tolerability [3]: safe and well-tolerated; Plasma concentration of CK, Cmax ([4]; subjects who received 3 g fermented RGE (contains 10.9 mg CK)): 254.5 ng/mL; Plasma concentration of CK, Cmax ([4]; subjects who received RGE (does not contain CK)): 8.4 to 24.8 ng/mL; Increase of ginsenoside by fermentation of RGE with LAB [6]: about 30% |
| identified in urine | 17.2 ± 3.1 | 22.8 ± 6.7 | 19.9 ± 1.7 | 8.0 ± 0.0 | 508.6 ± 109 | 524.4 ± 146.6 | 18.3 ± 4.3 | 24.1 ± 2.4 | 19.0 ± 1.3 | 8.0 ± 0.0 | detected | not different | most significant decrease | significantly decreased | CC(C)=CCC[C@](C)(O[C@@H]1O[C@H](CO[C@@H]2O[C@@H](CO)[C@H](O)[C@H]2O)[C@@H](O)[C@H](O)[C@H]1O)[C@H]1CC[C@]2(C)[C@@H]1[C@H](O)C[C@@H]1[C@@]3(C)CC[C@H](O[C@@H]4O[C@H](CO)[C@@H](O)[C@H](O)[C@H]4O[C@@H]4O[C@H](CO)[C@@H](O)[C@H](O)[C@H]4O)C(C)(C)[C@@H]3CC[C@]12C [GRc] | produced GRg3 with the highest formation rate | Fecal recovery, change by the amoxicillin treatment [1]: increased; Cmax [2, 12]: 14.8 ± 6.6 ng/mL; Half-Life [2, 12]: 25.1 ± 9.9 h; MRT [2, 12]: 21.9 ± 1.5 h; Tmax [2, 12]: 13.3 ± 9.2 h; AUC [2, 12]: 571.7 ± 276 ng·h/mL; Plasma concentrations, amoxicillin treatment compared to the control group [2]: not significantly affected; Ratio of liver AUC to plasma AUC [9]: < 0.2; Cmax [5, 13]: 13.2 ± 6.6 ng/mL; Half-Life [5, 13]: 20.2 ± 1.8 h; MRT [5, 13]: 20.6 ± 1.2 h; Tmax [5, 13]: 4.7 ± 3.1 h; AUC [5, 13]: 448.2 ± 268.1 ng·h/mL |
| identified in urine | 8.6 ± 1.8 | 24.2 ± 3.1 | 21.3 ± 3.0 | 13.3 ± 9.2 | 278.8 ± 117 | 618.1 ± 385.6 | 18.4 ± 6.9 | 25.5 ± 3.8 | 20.6 ± 3.7 | 16.0 ± 9.2 | detected | increased | gradual decrease | significantly decreased | CC(C)=CCC[C@](C)(O[C@@H]1O[C@H](CO)[C@@H](O)[C@H](O)[C@H]1O)[C@H]1CC[C@]2(C)[C@@H]1[C@H](O)C[C@@H]1[C@@]3(C)CC[C@H](O[C@@H]4O[C@H](CO)[C@@H](O)[C@H](O)[C@H]4O[C@@H]4O[C@H](CO)[C@@H](O)[C@H](O)[C@H]4O)C(C)(C)[C@@H]3CC[C@]12C [GRd] | produced GRg3 with the highest formation rate | Cmax [2, 12]: 3.2 ± 1.6 ng/mL; Half-Life [2, 12]: 29.1 ± 8.6 h; MRT [2, 12]: 24.0 ± 2.1 h; Tmax [2, 12]: 24.7 ± 23.0 h; AUC [2, 12]: 132.4 ± 77 ng·h/mL; Plasma concentrations, amoxicillin treatment compared to the control group [2]: decreased; Ratio of liver AUC to plasma AUC [9]: < 0.2; Cmax [5, 13]: 6.5 ± 5.1 ng/mL; Half-Life [5, 13]: 29.2 ± 2.7 h; MRT [5, 13]: 24.1 ± 3.9 h; Tmax [5, 13]: 5.3 ± 2.3 h; AUC [5, 13]: 213.1 ± 151.3 ng·h/mL; Plasma exposure / pharmacokinetic parameters, LAB treatment compared with amoxicillin group ([5]; listed as Rd): significantly increased; Urinary excretion, Amoxicillin + LAB compared with amoxicillin group ([7]; urine 48 h after single oral RGE 2 g/kg): increased |

The next lines start with the compound.

| SMILES | Ginsenosides identified in urine [1] | Cmax ([2]; Control, plasma) [ng/mL] | Half-Life ([2]; Control, plasma) [h] | MRT ([2]; Control, plasma) [h] | Tmax ([2]; Control, plasma) [h] | AUC ([2]; Control, plasma, n = 3) [ng·h/mL] | AUC [5, 11] [ng·h/mL] | Cmax ([5]; Amoxicillin + LAB) [ng/mL] | Half-Life ([5]; Amoxicillin + LAB) [h] | MRT ([5]; Amoxicillin + LAB) [h] | Tmax ([5]; Amoxicillin + LAB) [h] | Detection in mouse plasma following repeated LAB administration in addition to amoxicillin [5] | Plasma exposure / pharmacokinetic parameters, LAB treatment compared with amoxicillin group [5] | Alteration of ginsenoside by fermentation of RGE with LAB [6] | Fecal recovery, change by LAB treatment [7] | Metabolite formation on incubation of single ginsenoside with LAB [10] | other results |
| --- | --- | --- | --- | --- | --- | --- | --- | --- | --- | --- | --- | --- | --- | --- | --- | --- | --- |
| CC(C)=CCC[C@](C)(O[C@@H]1O[C@H](CO)[C@@H](O)[C@H](O)[C@H]1O)[C@H]1CC[C@]2(C)[C@@H]1[C@H](O)C[C@@H]1[C@@]3(C)CC[C@H](O)C(C)(C)[C@@H]3[C@@H](O)C[C@]12C [GF1] | – | – | – | – | – | – | – | – | – | – | – | – | – | most significant decrease | remained similar | – | Plasma protein binding [8]: over 99% |
| CC(C)=CCC[C@](C)(O)[C@H]1CC[C@]2(C)[C@@H]1[C@H](O)C[C@@H]1[C@@]3(C)CC[C@H](O)C(C)(C)[C@@H]3[C@@H](O[C@@H]3O[C@H](CO)[C@@H](O)[C@H](O)[C@H]3O)C[C@]12C [GRh1, ginsenoside Rh1] | – | – | – | – | – | – | – | – | – | – | – | not found | – | – | remained similar | – | Increase of ginsenoside by fermentation of RGE with LAB [6]: about 30%; Metabolic stability in mouse liver microsomes (Microsomal stability): unstable |
| CC(C)=CCC[C@](C)(O)[C@H]1CC[C@]2(C)[C@@H]1[C@H](O)C[C@@H]1[C@@]3(C)CC[C@H](O[C@@H]4O[C@H](CO)[C@@H](O)[C@H](O)[C@H]4O)C(C)(C)[C@@H]3CC[C@]12C [GRh2] | – | – | – | – | – | – | – | – | – | – | – | not found | – | remained unchanged | remained similar | the highest among the ginsenoside formation rate | Metabolic stability in mouse liver microsomes (Microsomal stability): unstable |
| CN(C)C(=N)N=C(N)N [metformin, reference compound] | – | – | – | – | – | – | – | – | – | – | – | – | – | – | – | – | percent of remaining after 1 h incubation in the mouse liver microsomes (Microsomal stability; NADPH-generating system, 37 °C): 69.35 ± 3.00% |
